{"source": "patent US20110207751A1", "about": "“HETEROCYCLIC COMPOUNDS AND USES AS ANTICANCER AGENTS” (priority 2010, published 2011)", "key": {"[1]": {"system": "KB cells (parental cervical cancer cell line)", "experiment": "Inhibition of cell proliferation, xCelligence cell index", "type": "cell-based", "conditions": "Homo sapiens, 72 hr post compound treatment, read-out: calculated IC50", "quoted_text": "(§5) The biological activity of compounds disclosed herein was monitored and profiled using the Real-Time Cell Electronic Sensing (RT-CES®) system from ACEA Biosciences, Inc. The RT-CES system utilizes cell-substrate impedance technology to monitor cellular behavior inside tissue culture wells in a microtiter plate format. The technology features in the integration of molecular and cell biology with microelectronics and is based on the electronic detection of biological assay process.\nFor measurement of cell-substrate or cell-electrode impedance using RT-CES technology, microelectrodes having appropriate geometries are fabricated onto the bottom surfaces of microtiter plate or similar device, facing into the wells. Cells are introduced into the wells of the devices, and make contact to and attach to the electrode surfaces. The presence, absence or change of properties of cells affects the electronic and ionic passage on the electrode sensor surfaces. Measuring the impedance between or among electrodes provides important information about biological status of cells present on the sensors. When there are changes to the biological status of the cells analogue electronic readout signals are measured automatically and in real time, and are converted to digital signals for processing and for analysis. In a RT-CES system, a cell index (arbitrary representation of change in impedance) is automatically derived and provided based on measured electrode impedance values. The cell index obtained for a given well reflects: 1) how many cells are attached to the electrode surfaces in this well; 2) how well cells are attached to the electrode surfaces in this well. […]\nTo quantify cell status based on the measured cell-electrode impedance, a parameter termed Cell Index is derived. Cell Index is a quantitative measure of the status of the cells in an electrode-containing well. […]\nThe parental cervical cancer cell line, KB cells were first tested. […] The cell status was monitored prior to and after the compound addition using xCelligence system (Roche). […]"}, "[2]": {"system": "KB200 cells over-expressing multiple drug resistant (MDR) gene", "experiment": "Inhibition of cell proliferation, xCelligence cell index", "type": "cell-based", "conditions": "Homo sapiens", "quoted_text": "as §5\nFor measurement of cell-substrate or cell-electrode impedance using RT-CES technology, microelectrodes having appropriate geometries are fabricated onto the bottom surfaces of microtiter plate or similar device, facing into the wells. Cells are introduced into the wells of the devices, and make contact to and attach to the electrode surfaces. The presence, absence or change of properties of cells affects the electronic and ionic passage on the electrode sensor surfaces. Measuring the impedance between or among electrodes provides important information about biological status of cells present on the sensors. When there are changes to the biological status of the cells analogue electronic readout signals are measured automatically and in real time, and are converted to digital signals for processing and for analysis. In a RT-CES system, a cell index (arbitrary representation of change in impedance) is automatically derived and provided based on measured electrode impedance values. The cell index obtained for a given well reflects: 1) how many cells are attached to the electrode surfaces in this well; 2) how well cells are attached to the electrode surfaces in this well. Thus, the more the cells of same type in similar physiological conditions attach the electrode surfaces, the larger the cell index. And, the better the cells attach to the electrode surfaces (e.g., the cells spread-out more to have larger contact areas, or the cells attach tighter to electrode surfaces), the larger the cell index.\nTo quantify cell status based on the measured cell-electrode impedance, a parameter termed Cell Index is derived. Cell Index is a quantitative measure of the status of the cells in an electrode-containing well. Under the same physiological conditions, more cells attached on to the electrodes leads to larger cell-electrode resistance value, leading to a larger value for Cell Index. Furthermore, for the same number of cells present in the well, a change in the cell status such as morphology will lead to a change in the Cell Index. […]\nThe efficacy of these compounds was also tested against KB200 cell over-expressing multiple drug resistant (MDR) gene. […] The cell status was monitored prior to and after the compound addition using xCelligence system (Roche). […]"}, "[3]": {"system": "A549 human non-small cell lung cancer xenograft", "experiment": "In vivo antitumor efficacy, A549 xenograft", "parameters": "species or system BALB/c immunodeficient nude mice", "from_the_text": "(§1) To evaluate the in vivo anticancer efficacy of COMPOUND O, A549 human non-small cell lung cancer xenograft models in immunodeficient nude mice was used. The cell line and mice were maintained in the Pharmacology Lab of ACEA Bio (Hangzhou) CO., Ltd. The BALB/c immunodeficient nude mice were purchased from Shanghai SLAC Laboratory Animal, certification number: SCXKA (Shanghai) 2007-0005. The mouse weight was between 21±1 g. Only female mice were used in this study. The numbers of animals tested were as follow: 7-8 for each dose group, 6 for positive control group and 7 for negative control group.\n(§2) Test Control. For negative control, each mouse was administered orally with the solvent only having the same volume and same concentration as those used in COMPOUND O test, 120 mg/kg once every other day (qod) for 25 days. For positive control, an oral anticancer compound, Etoposide was administered orally at 30 mg/kg qod for 25 days.\n(§3) Preparation an Administration of Test Compounds. COMPOUND O was dissolved in 25% phospholipid (S75) and 75% polyvinylpyrrolidone (PL-PVP) then further diluted to 8 mg/ml in 0.9% NaCl aqueous solution. Each mouse was administered orally with the compound solution. Different dosages of COMPOUND O (120 mg/kg qod and 160 mg/kg q2*2 (dosing for 2 consecutive days then off for 2 consecutive days) were used in the study.\nPreparation of tumor cells for transplantation and determination of compound efficacy. To prepare the cancer cells for A549 human non-small cell lung cancer xenograft model, the log phase growing cell in the flask were trypsinized and cells were re-suspended in PBS (pH 7.2) at 2.5×10^7 cells/ml. The cell suspension (5×10^6 cells) was subcutaneously injected into the auxiliary region (right-side) of each mouse. After the inoculated cancer cells grew to a tumor of certain size (50-60 mm^3) in the nude mice (about 15 days post inoculation), the mice were randomized into different dosing groups and subjected to compound treatment. Between 3-4 weeks after the first dosing, mice were sacrificed and the transplanted tumors were removed from experimental mice. Each removed solid tumor was weighed; the tumor inhibition rate in each dosage group was calculated according to equation (1) in Example 1.\n(§4) All used materials including animal food, animal cage, supporting materials and apparatus contacted by animals, were high-pressure sterilized. Nude mice were maintained in laminar flow shelves under SPF condition. After tumor transplantation, mouse weight and tumor size in each compound dosage group were dynamically monitored and plotted. The tumor size was determined by measuring the major axis (a) and minor axis (b) of the tumor, and tumor volume was calculated according to the formula (2) in Example 1."}, "[4]": {"experiment": "Body weight and animal number of carrier mice, A549 xenograft test", "type": "in vivo, BALB/c immunodeficient nude mice", "from_the_text": "as §1, §2, §3, §4"}, "[5]": {"system": "microtubule network in A549 cells", "experiment": "Microtubule organization in A549 cells", "type": "cell-based, human", "conditions": "20 hr treatment"}, "[6]": {"conditions": "72 hr post compound treatment, read-out: calculated IC50"}}, "note": "Counter-ions that a name gives are not always drawn. Like-named read-outs stand apart in the source and are kept apart here.", "data": [{"compound": "CCc1ccc(Nc2nc(-c3c(C)nc4sccn34)cs2)cc1", "note": "[COMPOUND O, 2-(4-ethylphenyl)amino-4-(6-methylimidazo[2,1-b]thiazol-5-yl)-thiazole monohydrobromide]", "values": [{"measurement": "IC50", "setting": "[1]", "value": 0.0331, "unit": "µM"}, {"measurement": "IC50", "setting": "[2]; [6]", "value": 0.00984, "unit": "µM"}, {"measurement": "TV inhibition rate % T/C", "setting": "[3]; 120 mg/kg ig × 14 qod", "value": 37.5, "unit": "%"}, {"measurement": "Tumor volume (mm^3) End", "setting": "[3]; 120 mg/kg ig × 14 qod", "value": "244 ± 105", "unit": "mm^3"}, {"measurement": "Tumor volume (mm^3) Start", "setting": "[3]; 120 mg/kg ig × 14 qod", "value": "53.31 ± 24.5", "unit": "mm^3"}, {"measurement": "Tumor weight (g) x ± SD", "setting": "[3]; 120 mg/kg ig × 14 qod", "value": "0.25 ± 0.08", "unit": "g"}, {"measurement": "Tumor inhibition rate %", "setting": "[3]; 120 mg/kg ig × 14 qod, by tumor weight", "value": 67.8, "unit": "%"}, {"measurement": "TV inhibition rate % T/C", "setting": "[3]; 160 mg/kg ig × 11 q2*2", "value": 47.9, "unit": "%"}, {"measurement": "Tumor volume (mm^3) End", "setting": "[3]; 160 mg/kg ig × 11 q2*2", "value": "265 ± 135", "unit": "mm^3"}, {"measurement": "Tumor volume (mm^3) Start", "setting": "[3]; 160 mg/kg ig × 11 q2*2", "value": "45.25 ± 15.9", "unit": "mm^3"}, {"measurement": "Tumor weight (g) x ± SD", "setting": "[3]; 160 mg/kg ig × 11 q2*2", "value": "0.29 ± 0.11", "unit": "g"}, {"measurement": "Tumor inhibition rate %", "setting": "[3]; 160 mg/kg ig × 11 q2*2, by tumor weight", "value": 62.5, "unit": "%"}, {"measurement": "Animal weight (g) Beginning", "setting": "[4]; 120 mg/kg ig × 14 qod", "value": 20.77, "unit": "g"}, {"measurement": "Animal weight (g) end", "setting": "[4]; 120 mg/kg ig × 14 qod", "value": 16.94, "unit": "g"}, {"measurement": "Body weight of mice (g) 1 day", "setting": "[4]; 120 mg/kg ig × 14 qod", "value": "20.77 ± 0.68", "unit": "g"}, {"measurement": "Body weight of mice (g) 4 day", "setting": "[4]; 120 mg/kg ig × 14 qod", "value": "20.27 ± 0.83", "unit": "g"}, {"measurement": "Body weight of mice (g) 8 day", "setting": "[4]; 120 mg/kg ig × 14 qod", "value": "19.57 ± 1.09", "unit": "g"}, {"measurement": "Body weight of mice (g) 11 day", "setting": "[4]; 120 mg/kg ig × 14 qod", "value": "18.20 ± 0.59", "unit": "g"}, {"measurement": "Body weight of mice (g) 15 day", "setting": "[4]; 120 mg/kg ig × 14 qod", "value": "17.90 ± 0.61", "unit": "g"}, {"measurement": "Body weight of mice (g) 18 day", "setting": "[4]; 120 mg/kg ig × 14 qod", "value": "17.90 ± 1.09", "unit": "g"}, {"measurement": "Body weight of mice (g) 22 day", "setting": "[4]; 120 mg/kg ig × 14 qod", "value": "17.21 ± 1.20", "unit": "g"}, {"measurement": "Body weight of mice (g) 25 day", "setting": "[4]; 120 mg/kg ig × 14 qod", "value": "17.00 ± 1.29", "unit": "g"}, {"measurement": "Animal No. end", "setting": "[4]; 120 mg/kg ig × 14 qod, 7 at beginning", "value": "7/7"}, {"measurement": "Animal weight (g) Beginning", "setting": "[4]; 160 mg/kg ig × 11 q2*2", "value": 21.69, "unit": "g"}, {"measurement": "Animal weight (g) end", "setting": "[4]; 160 mg/kg ig × 11 q2*2", "value": 17.97, "unit": "g"}, {"measurement": "Body weight of mice (g) 1 day", "setting": "[4]; 160 mg/kg ig × 11 q2*2", "value": "21.69 ± 0.66", "unit": "g"}, {"measurement": "Body weight of mice (g) 4 day", "setting": "[4]; 160 mg/kg ig × 11 q2*2", "value": "21.20 ± 0.79", "unit": "g"}, {"measurement": "Body weight of mice (g) 8 day", "setting": "[4]; 160 mg/kg ig × 11 q2*2", "value": "19.00 ± 1.48", "unit": "g"}, {"measurement": "Body weight of mice (g) 11 day", "setting": "[4]; 160 mg/kg ig × 11 q2*2", "value": "17.78 ± 2.11", "unit": "g"}, {"measurement": "Body weight of mice (g) 15 day", "setting": "[4]; 160 mg/kg ig × 11 q2*2", "value": "17.43 ± 1.86", "unit": "g"}, {"measurement": "Body weight of mice (g) 18 day", "setting": "[4]; 160 mg/kg ig × 11 q2*2", "value": "18.43 ± 0.90", "unit": "g"}, {"measurement": "Body weight of mice (g) 22 day", "setting": "[4]; 160 mg/kg ig × 11 q2*2", "value": "18.70 ± 1.04", "unit": "g"}, {"measurement": "Body weight of mice (g) 25 day", "setting": "[4]; 160 mg/kg ig × 11 q2*2", "value": "17.97 ± 0.93", "unit": "g"}, {"measurement": "Animal No. end", "setting": "[4]; 160 mg/kg ig × 11 q2*2, 8 at beginning", "value": "8/3"}, {"measurement": "effect on microtubule organization", "setting": "[5]", "value": "findings similar to those of vincristine-induced microtubule changes"}]}, {"compound": "COc1cc([C@@H]2c3cc4c(cc3[C@@H](O[C@@H]3O[C@@H]5CO[C@@H](C)O[C@H]5[C@H](O)[C@H]3O)[C@H]3COC(=O)[C@H]23)OCO4)cc(OC)c1O", "note": "[Etoposide, reference compound]", "values": [{"measurement": "TV inhibition rate % T/C", "setting": "[3]; 30 mg/kg ig × 13 qod", "value": 40.0, "unit": "%"}, {"measurement": "Tumor volume (mm^3) End", "setting": "[3]; 30 mg/kg ig × 13 qod", "value": "243 ± 121", "unit": "mm^3"}, {"measurement": "Tumor volume (mm^3) Start", "setting": "[3]; 30 mg/kg ig × 13 qod", "value": "57.42 ± 23.5", "unit": "mm^3"}, {"measurement": "Tumor weight (g) x ± SD", "setting": "[3]; 30 mg/kg ig × 13 qod", "value": "0.27 ± 0.15", "unit": "g"}, {"measurement": "Tumor inhibition rate %", "setting": "[3]; 30 mg/kg ig × 13 qod, by tumor weight", "value": 59.9, "unit": "%"}, {"measurement": "Animal weight (g) Beginning", "setting": "[4]; 30 mg/kg ig × 13 qod", "value": 21.30, "unit": "g"}, {"measurement": "Animal weight (g) end", "setting": "[4]; 30 mg/kg ig × 13 qod", "value": 18.18, "unit": "g"}, {"measurement": "Body weight of mice (g) 1 day", "setting": "[4]; 30 mg/kg ig × 13 qod", "value": "21.30 ± 0.70", "unit": "g"}, {"measurement": "Body weight of mice (g) 4 day", "setting": "[4]; 30 mg/kg ig × 13 qod", "value": "19.38 ± 2.22", "unit": "g"}, {"measurement": "Body weight of mice (g) 8 day", "setting": "[4]; 30 mg/kg ig × 13 qod", "value": "20.53 ± 1.26", "unit": "g"}, {"measurement": "Body weight of mice (g) 11 day", "setting": "[4]; 30 mg/kg ig × 13 qod", "value": "19.62 ± 1.15", "unit": "g"}, {"measurement": "Body weight of mice (g) 15 day", "setting": "[4]; 30 mg/kg ig × 13 qod", "value": "19.63 ± 1.63", "unit": "g"}, {"measurement": "Body weight of mice (g) 18 day", "setting": "[4]; 30 mg/kg ig × 13 qod", "value": "19.48 ± 2.01", "unit": "g"}, {"measurement": "Body weight of mice (g) 22 day", "setting": "[4]; 30 mg/kg ig × 13 qod", "value": "19.10 ± 2.57", "unit": "g"}, {"measurement": "Body weight of mice (g) 25 day", "setting": "[4]; 30 mg/kg ig × 13 qod", "value": "18.18 ± 1.86", "unit": "g"}, {"measurement": "Animal No. end", "setting": "[4]; 30 mg/kg ig × 13 qod, 6 at beginning", "value": "6/6"}]}, {"compound": "CC(=O)O[C@H]1C(=O)[C@@]2(C)[C@H]([C@H](OC(=O)c3ccccc3)[C@]3(O)C[C@H](OC(=O)[C@H](O)[C@@H](NC(=O)c4ccccc4)c4ccccc4)C(C)=C1C3(C)C)[C@]1(OC(C)=O)CO[C@@H]1C[C@@H]2O", "note": "[paclitaxel]", "values": [{"measurement": "IC50", "setting": "[1]", "value": 0.00719, "unit": "µM"}, {"measurement": "IC50", "setting": "[2]; [6]", "value": "> 1", "unit": "µM"}, {"measurement": "IC50", "setting": "[2]; read-out: IC50", "value": "> 1", "unit": "µM"}, {"measurement": "effect on microtubule organization", "setting": "[5]", "value": "microtubule polymerization with an increasing in the density of cellular microtubules"}]}]}
